Results on eight compounds are retold here after patent US20250206761A1, “HALOINDOLE MACROCYCLIC COMPOUNDS FOR THE TREATMENT OF CANCER” (Hoffmann-La Roche Inc., priority 2022, published 2025).

As usually defined, the IC50 is the concentration needed to halve the response being measured. A higher IC50 goes with weaker potency.

SMILES strings stand for the structures. Read-outs that look alike come from different tables or passages of the source.

The conditions of data set [1]: ester bond, EDCI/HOBt/DIEA, DCM.
For data set [2], the target named is KRAS G12D binding to BRAF (Homo sapiens (Human), UniProt P01116+P62937, G12D). Description: KRAS-BRAF with CYPA (500 nM) interaction assay (TR-FRET), G12D. The data set is classed as biochemical. (TR-FRET usually uses a lanthanide donor and a delayed reading to cut background.)
Sequence of KRAS G12D binding to BRAF (P01116-2 other isoform, or with tags, fused parts or gaps G12D): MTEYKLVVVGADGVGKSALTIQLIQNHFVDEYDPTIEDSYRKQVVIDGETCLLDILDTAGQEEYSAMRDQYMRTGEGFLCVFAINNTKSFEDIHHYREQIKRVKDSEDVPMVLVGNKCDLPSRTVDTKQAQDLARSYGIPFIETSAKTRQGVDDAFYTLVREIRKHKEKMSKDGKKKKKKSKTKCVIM
Sequence of KRAS G12D binding to BRAF (P62937 whole entry): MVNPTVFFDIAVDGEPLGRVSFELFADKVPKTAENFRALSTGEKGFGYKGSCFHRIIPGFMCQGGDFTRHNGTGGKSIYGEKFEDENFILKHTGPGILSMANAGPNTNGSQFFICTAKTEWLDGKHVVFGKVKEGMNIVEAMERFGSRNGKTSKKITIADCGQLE
Data set [3] deals with phosphorylation of ERK, KRAS G12C in NCJ-H358 cells. Description: pERK inhibition assay, KRAS G12C. Format: cell-based, human. As to conditions: Homo sapiens, 4 hours. Put shortly:
(§1)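 In-cell ELISA of phospho-ERK (HRP/TMB, OD450) after formaldehyde fixation and methanol permeabilization; IC50 by 4-parameter sigmoidal fit. Compound incubation 4 h, 0.5% DMSO final, on overnight-attached NCJ-H358, AGS or SW620 cells seeded at 30,000, 20,000 and 30,000 per well.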

Data set [4] relates to cryopreserved suspension hepatocytes from human. Description: Human hepatocyte stability assay. The data set is classed as in vitro ADME. Conditions: for Clearance Category: human hepatocytes; for CL_hep (Human): human hepatocytes 1×10^6 cells/mL, 37° C. The procedure:
The hepatocyte stability assay measures the rate of disappearance of a compound from incubations with cryopreserved suspension hepatocytes from human. Positive controls, including Midazolam, Raloxifene and Dextromethorphan, are included in every experiment. Incubations consist of […] tested compound and suspension of human hepatocytes (1×10^6 cells/mL) in supplemented Williams' E Medium with 10% FBS and 0.5% Penicillin-streptomycin. The hepatocyte suspension was incubated with intermittent shaking 900 rpm at 37° C., in a 5% CO2 incubator. The reaction was stopped by adding methanol containing internal standard (2 μM Tolbutamide) at 2, 10, 20, 40, 60 and 120 minutes after compound addition, depletion of the parent compound was monitored by LC-MS/MS analysis.

The target in data set [5] is KRAS G12V binding to BRAF (Homo sapiens (Human), UniProt P01116+P62937, G12V). Description: KRAS-BRAF with CYPA (500 nM) interaction assay (TR-FRET), G12V. The data set is classed as biochemical. Put shortly:
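A TR-FRET assay measured how compound, in the presence of CYPA, disrupts binding of GMPPNP-loaded 6His-KRAS G12V to BRAF. The buffer contained 25 mM HEPES PH=7.4, 0.002% Tween20, 0.1% BSA, 100 mM NaCl, 5 mM MgCl2 and 10 μM GMPPNP. Compounds ran as a 16-point 3-fold dilution series from 10 μM for 3 hours.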

Data set [6] relates to phosphorylation of ERK, KRAS G12V in SW620. Description: pERK inhibition assay, KRAS G12V. The data set is classed as cell-based, human. As to conditions: Homo sapiens, SW-620, SW620, 4 hours. Put shortly:
as §1

The subject of data set [7] is phosphorylation of ERK, KRAS G12D in AGS cells. Description: pERK inhibition assay, KRAS G12D. The data set is classed as cell-based, human. Conditions: Homo sapiens, 4 hours. Put shortly:
as §1

Data set [8] addresses T1, KRAS G12C-BRAF complex (Homo sapiens (Human), UniProt P01116+P62937, G12C). Description: KRAS-BRAF with CYPA (500 nM) interaction assay (TR-FRET), G12C. The data set is classed as biochemical.
The target of data set [9] is T1, KRAS G12C-BRAF complex. Description: KRAS G12C-BRAF NanoBit assay. Format: cell-based. Conditions: HEK293 cells, 3 hours of incubation. The procedure:
This assay is to measure the ability of tested compounds in disruption of the KRAS G12C-BRAF complex at the cellular level, we established the NanoBit cellular assay in mammalian HEK293 (ATCC) cells.
HEK293 cells were grown and maintained using DMEM medium (Thermo Fisher Scientific) with 10% fetal bovine serum and 1% penicillin/streptomycin. Both KRAS G12C and BRAF RBD were cloned into the NanoBit vectors ([…] vectors system, Promega) with the orientations SnmBit-KRAS G12C and BRAF RBD-LgBit, respectively, and co-transfected into HEK293 cells. Cells were then selected with 100 μg/mL Hygromycin B (10687010, Thermo Fisher) and Blasticidin (5 μg/mL) for 4 weeks to get the stable cell pool.
On the day of the assay, 75 nL of compound solution was presented in a 384-well assay plate as a 16-point 3-fold dilution starting from a final concentration of 30 μM in DMSO. Then cells were seeded at 10,000 cells/25 μL/well in a 384-well plate. After 3 hours of incubation, 6 μL of volume of Nano-Glo® Live Cell Substrate (Promega) was added into each well. Monitor luminescence using ultra384 model in Envision at 20 minutes. Compounds that facilitate disruption of the KRAS G12C-BRAF RBD complex were identified as those eliciting a decrease of luminescence relative to DMSO control wells.

Data set [10] concerns NCI-H358 (ATCC-CRL5807) cells. Description: Cell viability assay, G12C (NCI-H358). The data set is classed as cell-based, human. Conditions: Homo sapiens; KRAS cell viability, NCI-H358, 72 hrs, Cell Counting Kit-8. Put shortly: (§2)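 Seed NCI-H358 5,000/well, AGS and SW620 2,000/well; overnight. Compound, 0.5% DMSO final, 72 hrs. CCK-8 2 hrs, OD450–OD650. IC50: 4-parameter fit.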
In general terms: Tetrazolium dyes change colour on reduction, which living cells bring about.

Data set [11] deals with AGS (ATCC-CRL-1739) cells. Description: Cell viability assay, G12D (AGS). The data set is classed as cell-based, human. Conditions: Homo sapiens, KRAS cell viability, 72 hrs, Cell Counting Kit-8. Put shortly: as §2
For another data set, the system named is SW620 (ATCC-CCL-227). Description: Cell viability assay, G12V (SW620). Format: cell-based, human. As to conditions: Homo sapiens, SW-620; KRAS cell viability, SW620, 72 hrs, Cell Counting Kit-8. Put shortly: as §2

T1 sequence (P01116-2 other isoform, or with tags, fused parts or gaps G12C): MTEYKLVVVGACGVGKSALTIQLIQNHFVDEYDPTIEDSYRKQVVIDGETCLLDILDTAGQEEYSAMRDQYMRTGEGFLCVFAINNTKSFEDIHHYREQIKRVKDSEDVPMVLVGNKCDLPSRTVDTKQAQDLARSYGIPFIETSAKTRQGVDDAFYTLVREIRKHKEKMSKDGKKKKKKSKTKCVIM
T1 sequence (P62937 whole entry): as the sequence (P62937 whole entry) above
Sequence of KRAS G12V binding to BRAF (P01116-2 other isoform, or with tags, fused parts or gaps G12V): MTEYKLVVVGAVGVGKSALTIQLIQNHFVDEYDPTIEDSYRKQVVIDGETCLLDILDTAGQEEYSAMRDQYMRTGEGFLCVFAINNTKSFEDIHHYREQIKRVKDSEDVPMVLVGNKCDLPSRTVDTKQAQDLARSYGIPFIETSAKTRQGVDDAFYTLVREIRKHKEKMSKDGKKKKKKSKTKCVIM
Sequence of KRAS G12V binding to BRAF (P62937 whole entry): as the sequence (P62937 whole entry) above

For `CCn1c(-c2cc(N3CCOCC3)cnc2[C@H](C)OC)c2c3cc(c(F)cc31)-c1csc(n1)C[C@H](NC(=O)OC(C)(C)C)C(=O)N1CCC[C@H](N1)C(=O)OCC(C)(C)C2`, the ring closure, yield of all isomers in [1] (from CCn1c(-c2cc(N3CCOCC3)cnc2[C@H](C)OC)c(CC(C)(C)CO)c2cc(-c3csc(C[C@H](NC(=O)OC(C)(C)C)C(=O)N4CCC[C@@H](C(=O)O)N4)n3)c(F)cc21, 11.72 mM, 20.0 °C, 12.0 h) came out at 49.1%.

For the compound `CO[C@@H](C)c1ncc(N2CCN(C(=O)OCc3ccccc3)CC2)cc1-c1c2c3cc(c(F)cc3n1CC(F)(F)F)-c1cc(cc(O[Si](C(C)C)(C(C)C)C(C)C)c1)C[C@H](NC(=O)OC(C)(C)C)C(=O)N1CCC[C@H](N1)C(=O)OCC(C)(C)C2`, the ring closure, yield of all isomers in data set [1] (from CO[C@@H](C)c1ncc(N2CCN(C(=O)OCc3ccccc3)CC2)cc1-c1c(CC(C)(C)CO)c2cc(-c3cc(C[C@H](NC(=O)OC(C)(C)C)C(=O)N4CCC[C@@H](C(=O)O)N4)cc(O[Si](C(C)C)(C(C)C)C(C)C)c3)c(F)cc2n1CC(F)(F)F, 8.33 mM, 15.0 °C, 12.0 h) was 74.2%.

For `CC(C)[C@@H](C(=O)N[C@H]1Cc2cc(O)cc(c2)-c2ccc3c(C(C)(C)C#N)cn(c3c2)CC(C)(C)COC(=O)[C@@H]2CCCN(N2)C1=O)N1CCC2(CN(C(=O)[C@H](F)Cl)C2)C1=O` [RM44-A, reference compound], the concentration for half-maximal inhibition (IC50) in [2] was > 10000 nM; in [3], > 10000 nM; in data set [5], > 10000 nM; in data set [6], > 10000 nM; in [7], > 10000 nM; against KRAS G12C-BRAF complex [8] it was 779 nM. On KRAS G12C-BRAF complex [9], the IC50 turned out to be 1150 nM. The “Clearance Category” value in data set [4] is listed as “low (CL_hep (mL/min/kg)<6.96 is low clearance)”. Besides, the “CL_hep (Human)” value in data set [4] is given as <2.4 mL/min/kg.

The compound `CO[C@@H](C)c1ncc(N2CCOCC2)cc1-c1c2c3cc(c(F)cc3n1CC(F)(F)F)-c1csc(n1)C[C@H](NC(=O)OC(C)(C)C)C(=O)N1CCC[C@H](N1)C(=O)OCC(C)(C)C2` registered a ring closure, yield of all isomers in data set [1] (from CO[C@@H](C)c1ncc(N2CCOCC2)cc1-c1c(CC(C)(C)CO)c2cc(-c3csc(C[C@H](NC(=O)OC(C)(C)C)C(=O)N4CCC[C@@H](C(=O)O)N4)n3)c(F)cc2n1CC(F)(F)F, 12.0 mM, 20.0 °C, 15.0 h) of 81.3%.

On to `CO[C@@H](C)c1ncc(N2CCN(C)CC2)cc1-c1c2c3cc(c(F)cc3n1CC(F)(F)F)-c1csc(n1)C[C@H](NC(=O)[C@H](C(C)C)N1CC[C@@]3(CCN(C(=O)[C@H](F)Cl)C3)C1=O)C(=O)N1CCC[C@H](N1)C(=O)OCC(C)(C)C2` (atropisomer, axis not shown; (M)) [Example 4, (2S)-2-[(5R)-7-[(2R)-2-chloro-2-fluoro-acetyl]-1-oxo-2,7-diazaspiro[4.4]nonan-2-yl]-N-[(7S,13S)-24-fluoro-(20M)-20-[2-[(1S)-1-methoxyethyl]-5-(4-methylpiperazin-1-yl)-3-pyridyl]-17,17-dimethyl-8,14-dioxo-21-(2,2,2-trifluoroethyl)-15-oxa-4-thia-9,21,27,28-tetrazapentacyclo[17.5.2.1^2,5.1^9,13.0^22,26]octacosa-1(25),2,5(28),19,22(26),23-hexaen-7-yl]-3-methyl-butanamide], for which the half-maximal inhibitory concentration (IC50) in data set [10] is 2 nM; in data set [11], 1280 nM; in data set [2], 4370 nM; in [3], 2 nM; in data set [5], > 10000 nM; in data set [6], 48 nM. For the same compound, the IC50 in [7] amounted to 110 nM; against KRAS G12C-BRAF complex [8], 122 nM; in the data set on SW620 (ATCC-CCL-227), 635 nM. In addition, the “Clearance Category” value in data set [4] was “low (CL_hep (mL/min/kg)<6.96 is low clearance)”. The “CL_hep (Human)” value in data set [4] is 6.4 mL/min/kg.

For the compound `CO[C@@H](C)c1ncc(N2CCN(C)CC2)cc1-c1c2c3cc(c(F)cc3n1CC(F)(F)F)-c1csc(n1)C[C@H](NC(=O)[C@H](C(C)C)N1CCC3(CCN(C(=O)[C@H](F)Cl)CC3)C1=O)C(=O)N1CCC[C@H](N1)C(=O)OCC(C)(C)C2` (atropisomer, axis not shown; (M)) [Example 15, (2S)-2-[8-[(2R)-2-chloro-2-fluoro-acetyl]-1-oxo-2,8-diazaspiro[4.5]decan-2-yl]-N-[(7S,13S)-24-fluoro-(20M)-20-[2-[(1S)-1-methoxyethyl]-5-(4-methylpiperazin-1-yl)-3-pyridyl]-17,17-dimethyl-8,14-dioxo-21-(2,2,2-trifluoroethyl)-15-oxa-4-thia-9,21,27,28-tetrazapentacyclo[17.5.2.1^2,5.1^9,13.0^22,26]octacosa-1(25),2,5(28),19,22(26),23-hexaen-7-yl]-3-methyl-butanamide], the half-maximal inhibitory concentration (IC50) in data set [10] was < 1 nM; in data set [11] it was 3240 nM; with SW620 (ATCC-CCL-227), 771 nM; against KRAS G12C-BRAF complex [9], 32 nM. Besides, the “Clearance Category” value in data set [4] is “medium (16.24>CL_hep (mL/min/kg)>6.96 is medium clearance)”. Moreover, in [4], the “CL_hep (Human)” value is 10.9 mL/min/kg.

With `CO[C@@H](C)c1ncc(N2CCN(C(=O)OCc3ccccc3)CC2)cc1-c1c2c3cc(c(F)cc3n1CC(F)(F)F)-c1csc(n1)C[C@H](NC(=O)OC(C)(C)C)C(=O)N1CCC[C@H](N1)C(=O)OCC(C)(C)C2`, in [1] (from CO[C@@H](C)c1ncc(N2CCN(C(=O)OCc3ccccc3)CC2)cc1-c1c(CC(C)(C)CO)c2cc(-c3csc(C[C@H](NC(=O)OC(C)(C)C)C(=O)N4CCC[C@@H](C(=O)O)N4)n3)c(F)cc2n1CC(F)(F)F, 9.63 mM, 15.0 °C, 12.0 h), the ring closure, yield of all isomers stood at 73.4%.

As for `CO[C@@H](C)c1ncc(N2CCN(C)CC2)cc1-c1c2c3cc(c(F)cc3n1CC(F)(F)F)-c1csc(n1)C[C@H](NC(=O)[C@H](C(C)C)N1CCCC3(CCN(C(=O)[C@H](F)Cl)CC3)C1=O)C(=O)N1CCC[C@H](N1)C(=O)OCC(C)(C)C2` (atropisomer, axis not shown; (M)) [Example 6, (2S)-2-[9-[(2R)-2-chloro-2-fluoro-acetyl]-1-oxo-2,9-diazaspiro[5.5]undecan-2-yl]-N-[(7S,13S)-24-fluoro-(20M)-20-[2-[(1S)-1-methoxyethyl]-5-(4-methylpiperazin-1-yl)-3-pyridyl]-17,17-dimethyl-8,14-dioxo-21-(2,2,2-trifluoroethyl)-15-oxa-4-thia-9,21,27,28-tetrazapentacyclo[17.5.2.1^2,5.1^9,13.0^22,26]octacosa-1(25),2,5(28),19,22(26),23-hexaen-7-yl]-3-methyl-butanamide], the concentration for half-maximal inhibition (IC50) turned out to be 1 nM in data set [10]; 76 nM in data set [11]; 1 nM in [3]; 24 nM in data set [6]; 21 nM in data set [7]; 21 nM in the data set on SW620 (ATCC-CCL-227). Besides, the “Clearance Category” value in data set [4] is “medium (16.24>CL_hep (mL/min/kg)>6.96 is medium clearance)”. Also, the “CL_hep (Human)” value in data set [4] is 13.4 mL/min/kg.
